Experimental data as given in US11707454B2, “Topical roflumilast formulation having antifungal properties” (ARCUTIS BIOTHERAPEUTICS, INC., priority 2020, dated 2023).
In brackets after ≈: the same amount, converted by molar mass. Like-named read-outs stand apart in the source and are kept apart here.

Tests used:
[1] = system: C. albicans (ATCC 90028); experiment: in vitro micro-dilution susceptibility assay (method of Rojas); format: cell-based; conditions: for MIC: Candida albicans, read-out: minimum inhibition concentration (MIC)
Procedure: (§1) The in vitro susceptibility of Malassezia species to roflumilast was determined utilizing three Candida species as internal control isolates for all testing. These three isolates were C. albicans American Type Culture Collection (ATCC) 90028, C. krusei (ATCC 6258) and C. parapsilosis (ATCC 22019). In addition to testing roflumilast all susceptibility assays were conducted using ketoconazole and hydrocortisone as positive and negative control compounds, respectively. All assays were placed within a humidified incubator set to 32° C. for a total of seven days. Each assay was evaluated after 12 hours of incubation and, every 24 hours post incubation for a total of seven days. The assays were evaluated for visual growth of each pathogen in the no treatment control as well as determination of minimum inhibition concentration (MIC) values. The concentration that provides a 3-log10 CFU/mL reduction in fungal burden from baseline at day 0 was defined as the minimum fungicidal concentration (MHC) and was determined by quantifying fungal burdens found in the microplate at day seven.
(§2) The method of Rojas (Rojas F D, et al. Antifungal susceptibility of Malassezia furfur, Malassezia sympodialis, and Malassezia globose to azole drugs and amphotericin B evaluated using a broth microdilution method. 2014. Medical Mycology. 52:641-646) was used in which the liquid broth medium was RPMI 1640 with added 1.8% glucose, 1% peptone, 0.5% ox-bile, 0.5% malt extract, 1% glycerol, 0.5% Tween 40 and 0.05% Tween 80. Round bottom 96 well microplates were used. The inoculums were prepared in sterile saline and diluted to a final targeted concentration of 0.5×10^5 to 2.5×10^5 CFU/mL in supplemented RPMI. […] For the internal control isolate C. parapsilosis (ATCC 22019) the expected CLSI values for ketoconazole of 0.03-0.25 (at 24 hours) and 0.06-0.5 (at 48 hours) did agree with the 2-day value (Table A) of 0.5.

[2] = system: C. krusei (ATCC 6258); experiment: as above; format: cell-based; conditions: for MIC: Pichia kudriavzevii, read-out: minimum inhibition concentration (MIC)
Procedure: as §1, §2

[3] = system: C. parapsilosis (ATCC 22019); experiment: as above; format: cell-based; conditions: C. parapsilosis (22019); for MIC: Lodderomyces parapsilosis, read-out: minimum inhibition concentration (MIC)
Procedure: as §1, §2

[4] = system: M. furfur (ATCC 12078); experiment: as above; format: cell-based; conditions: for MIC: Malassezia furfur, read-out: minimum inhibition concentration (MIC)
Procedure: as §1, §2

[5] = system: M. furfur (ATCC 14521); experiment: as above; format: cell-based; conditions: for MIC: Malassezia furfur, read-out: minimum inhibition concentration (MIC)
Procedure: as §1, §2

[6] = system: M. furfur (ATCC 44344); experiment: as above; format: cell-based; conditions: for MIC: Malassezia furfur, read-out: minimum inhibition concentration (MIC)
Procedure: as §1, §2

[7] = system: M. globose (ATCC MYA-4889); experiment: as above; format: cell-based
Procedure: as §1, §2

[8] = system: M. restricta (ATCC MYA-4611); experiment: as above; format: cell-based
Procedure: as §1, §2

[9] = system: C. krusei (ATCC 6258); conditions: cited from earlier work
[10] = system: C. parapsilosis (ATCC 22019); conditions: cited from earlier work

CC(=O)N1CCN(c2ccc(OCC3COC(Cn4ccnc4)(c4ccc(Cl)cc4Cl)O3)cc2)CC1 (centres unmarked) [Ketoconazole]
MIC ([1]; ATCC90028, 24 h, Time 1 days): 0.06 µg/mL (≈ 0.113 µM)
MIC ([1]; ATCC90028, 48 h, Time 2 days): 0.06 µg/mL (≈ 0.113 µM)
MIC ([1]; ATCC90028, 72 h, Time 3 days): 0.125 µg/mL (≈ 0.235 µM)
MIC ([1]; ATCC90028, 96 h, Time 4 days): 0.25 µg/mL (≈ 0.47 µM)
MIC ([1]; ATCC90028, 120 h, Time 5 days): 0.25 µg/mL (≈ 0.47 µM)
MIC ([1]; ATCC90028, 144 h, Time 6 days): 0.25 µg/mL (≈ 0.47 µM)
MIC ([1]; ATCC90028, 168 h, Time 7 days): 0.25 µg/mL (≈ 0.47 µM)
minimum inhibition concentration (MIC) ([1]; Time 0.5 days): NGO
MIC ([2]; ATCC6258, 24 h, Time 1 days): 4 µg/mL (≈ 7.53 µM)
MIC ([2]; ATCC6258, 48 h, Time 2 days): 8 µg/mL (≈ 15.1 µM)
MIC ([2]; ATCC6258, 72 h, Time 3 days): 16 µg/mL (≈ 30.1 µM)
MIC ([2]; ATCC6258, 96 h, Time 4 days): 16 µg/mL (≈ 30.1 µM)
MIC ([2]; ATCC6258, 120 h, Time 5 days): 16 µg/mL (≈ 30.1 µM)
MIC ([2]; ATCC6258, 144 h, Time 6 days): 32 µg/mL (≈ 60.2 µM)
MIC ([2]; ATCC6258, 168 h, Time 7 days): 32 µg/mL (≈ 60.2 µM)
minimum inhibition concentration (MIC) ([2]; Time 0.5 days): NGO
minimum inhibition concentration (MIC) ([3]; Time 0.5 days): NGO
MIC ([3]; ATCC22019, 24 h, Time 1 days): 0.5 µg/mL (≈ 0.941 µM)
MIC ([3]; ATCC22019, 48 h, Time 2 days): 0.5 µg/mL (≈ 0.941 µM)
MIC ([3]; ATCC22019, 72 h, Time 3 days): 0.5 µg/mL (≈ 0.941 µM)
MIC ([3]; ATCC22019, 96 h, Time 4 days): 0.5 µg/mL (≈ 0.941 µM)
MIC ([3]; ATCC22019, 120 h, Time 5 days): 1 µg/mL (≈ 1.88 µM)
MIC ([3]; ATCC22019, 144 h, Time 6 days): 1 µg/mL (≈ 1.88 µM)
MIC ([3]; ATCC22019, 168 h, Time 7 days): 2 µg/mL (≈ 3.76 µM)
MIC ([4]; ATCC12078, 48 h, Time 2 days): 0.06 µg/mL (≈ 0.113 µM)
MIC ([4]; ATCC12078, 72 h, Time 3 days): 0.06 µg/mL (≈ 0.113 µM)
MIC ([4]; ATCC12078, 96 h, Time 4 days): 0.06 µg/mL (≈ 0.113 µM)
MIC ([4]; ATCC12078, 120 h, Time 5 days): 0.06 µg/mL (≈ 0.113 µM)
MIC ([4]; ATCC12078, 144 h, Time 6 days): 0.06 µg/mL (≈ 0.113 µM)
MIC ([4]; ATCC12078, 168 h, Time 7 days): 0.25 µg/mL (≈ 0.47 µM)
minimum inhibition concentration (MIC) ([4]; Time 0.5 days): NGO
minimum inhibition concentration (MIC) ([4]; Time 1 days): NGO
MIC ([5]; ATCC14521, 48 h, Time 2 days): 0.03 µg/mL (≈ 0.0565 µM)
MIC ([5]; ATCC14521, 72 h, Time 3 days): 0.06 µg/mL (≈ 0.113 µM)
MIC ([5]; ATCC14521, 96 h, Time 4 days): 0.06 µg/mL (≈ 0.113 µM)
MIC ([5]; ATCC14521, 120 h, Time 5 days): 0.06 µg/mL (≈ 0.113 µM)
MIC ([5]; ATCC14521, 144 h, Time 6 days): 0.06 µg/mL (≈ 0.113 µM)
MIC ([5]; ATCC14521, 168 h, Time 7 days): 0.25 µg/mL (≈ 0.47 µM)
minimum inhibition concentration (MIC) ([5]; Time 0.5 days): NGO
minimum inhibition concentration (MIC) ([5]; Time 1 days): NGO
MIC ([6]; ATCC44344, 48 h, Time 2 days): 0.125 µg/mL (≈ 0.235 µM)
MIC ([6]; ATCC44344, 72 h, Time 3 days): 0.125 µg/mL (≈ 0.235 µM)
MIC ([6]; ATCC44344, 96 h, Time 4 days): 0.125 µg/mL (≈ 0.235 µM)
MIC ([6]; ATCC44344, 120 h, Time 5 days): 0.25 µg/mL (≈ 0.47 µM)
MIC ([6]; ATCC44344, 144 h, Time 6 days): 0.25 µg/mL (≈ 0.47 µM)
MIC ([6]; ATCC44344, 168 h, Time 7 days): 0.125 µg/mL (≈ 0.235 µM)
minimum inhibition concentration (MIC) ([6]; Time 0.5 days): NGO
minimum inhibition concentration (MIC) ([6]; Time 1 days): NGO
minimum inhibition concentration (MIC) ([7]; Time 0.5 days): NGO
minimum inhibition concentration (MIC) ([7]; Time 1 days): NGO
minimum inhibition concentration (MIC) ([7]; Time 2 days): NGO
minimum inhibition concentration (MIC) ([7]; Time 3 days): NGO
minimum inhibition concentration (MIC) ([7]; Time 4 days): NGO
minimum inhibition concentration (MIC) ([7]; Time 5 days): NGO
minimum inhibition concentration (MIC) ([7]; Time 6 days): NGO
minimum inhibition concentration (MIC) ([7]; Time 7 days): NGO
minimum inhibition concentration (MIC) ([8]; Time 0.5 days): NGO
minimum inhibition concentration (MIC) ([8]; Time 1 days): NGO
minimum inhibition concentration (MIC) ([8]; Time 2 days): NGO
minimum inhibition concentration (MIC) ([8]; Time 3 days): NGO
minimum inhibition concentration (MIC) ([8]; Time 4 days): NGO
minimum inhibition concentration (MIC) ([8]; Time 5 days): NGO
minimum inhibition concentration (MIC) ([8]; Time 6 days): NGO
minimum inhibition concentration (MIC) ([8]; Time 7 days): NGO
CLSI expected values ([9]; at 24 hours): 0.12-1
CLSI expected values ([9]; at 48 hours): 0.25-1
expected CLSI values ([10]; at 24 hours): 0.03-0.25
expected CLSI values ([10]; at 48 hours): 0.06-0.5
